Measurements as given in patent US9296709B2, “Manufacture of 2-(5-bromo-4-(4-cyclopropylnaphthalen-1-yl)-4H-1,2,4-triazol-3-ylthio)acetic acid” (ARDEA BIOSCIENCES, INC., priority 2012, dated 2016).
In brackets after ≈: the same amount, converted by molar mass.

Key:
[1] = Solubility in acetate buffer (25 mM, pH 5), assayed by HPLC; assay type: physicochemical; conditions: acetate buffer 25 mM pH 5, 25° C.; for solubility at 1 day: acetate buffer, 25 °C, pH 5, aqueous buffer, thermodynamic from solid
Protocol: (§1) Form 1 (˜25 mg) and acetate buffer (25 mM, pH 5, 4 mL), prepared with and without sodium chloride (ionic strength adjusted to =0.1M), were placed in a glass vial which was sealed and placed on a laboratory rotator in a 25° C. incubator. After 1, 5, and 7 days the samples were filtered and assayed by HPLC.
as §1, with “Form 2” for “Form 1”

[2] = Gravimetric vapor sorption (GVS) study; assay type: physicochemical
Excerpt: FIG. 12 illustrates a GVS study of form 1 and form 2. […] This property of decreased hygroscopicity greatly aids in the preparation of solid pharmaceutical dosage forms.

[3] = Drug substance stability of packaged polymorph under accelerated / long term storage conditions; conditions: for degradation of packaged drug substance: double LDPE bag, heat sealed foil bag, HDPE container
Protocol: Form 2 of 2-(5-bromo-4-(4-cyclopropylnaphthalen-1-yl)-4H-1,2,4-triazol-3-ylthio)acetate was tested under various conditions to determine drug substance stability. […] Packaging was in a double low density polyethylene plastic bags inside a HDPE container.

[4] = Solid held in equilibrium with its saturated acetone solution at 60° C.; assay type: physicochemical; conditions: 60° C. for 6 days

| solubility ([1]; Form 2, NaCl (I = 0.1), Day5, sample pH 4.83) | solubility ([1]; Form 2, NaCl (I = 0.1), Day 7, sample pH 4.85) | solubility ([1]; Form 2, No NaCl, Day 1, sample pH 4.91) | solubility ([1]; Form 2, No NaCl, Day5, sample pH 4.73) | solubility ([1]; Form 2, No NaCl, Day 7, sample pH 4.79) | solubility at 1 day ([1]; Form 2, NaCl (I = 0.1), Day 1) [µg/mL] | adsorbed at high humidity (GVS) [2] [% w/w] | degradation of packaged drug substance ([3]; 6 months, accelerated conditions 40° C.-75% RH) | degradation of packaged drug substance ([3]; 12 months, long term conditions 25° C.-60% RH) | solubility at 1 day ([1]; Form 1, NaCl (I = 0.1), Day 1) [µg/mL] | outcome of equilibration with saturated acetone solution [4] | Structure (SMILES) | stability in comparison to the amorphous solid state form of the carboxylic acid [3] |
| --- | --- | --- | --- | --- | --- | --- | --- | --- | --- | --- | --- | --- |
| 0.2441 (pH 4.83) mg/mL | 0.2157 (pH 4.85) mg/mL | 0.1867 (pH 4.91) mg/mL | 0.1957 (pH 4.73) mg/mL | 0.1337 (pH 4.79) mg/mL | 219 (≈ 542 µM) | < 0.1 |  |  |  |  | O=C(O)CSc1nnc(Br)n1-c1ccc(C2CC2)c2ccccc12 [Form 2, 2-(5-bromo-4-(4-cyclopropylnaphthalen-1-yl)-4H-1,2,4-triazol-3-ylthio)acetic acid] |  |
|  |  |  |  |  |  |  | No degradation | no degradation |  |  | O=C([O-])CSc1nnc(Br)n1-c1ccc(C2CC2)c2ccccc12.[Na+] [Form A, sodium 2-(5-bromo-4-(4-cyclopropylnaphthalen-1-yl)-4H-1,2,4-triazol-3-ylthio)acetate] | improvement over the solid state amorphous free acid |
|  |  |  |  |  |  | < 0.2 |  |  | 300 (≈ 741 µM) | decomposition | O=C(O)CSc1nnc(Br)n1-c1ccc(C2CC2)c2ccccc12 [Form 1, 2-(5-bromo-4-(4-cyclopropylnaphthalen-1-yl)-4H-1,2,4-triazol-3-ylthio)acetic acid] |  |
